Consider 21 molecules from US8163766B2, “Beta-secretase modulators and methods of use” (Amgen Inc., priority 2005, dated 2012).

For this assay, the system named is Aβ 40 in conditioned media of cells stably expressing Amyloid Precursor Protein (APP). Briefly: BACE Cell-Based Assay (Aβ40 in conditioned medium, sandwich ELISA). As to conditions: 24 hours of incubation with the test compounds, Aβ 40 by sandwich ELISA, read-out: IC50 values in the cell-based assay (inhibition of Aβ 40). The procedure, abridged:
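APP-stably-expressing cells in DMEM/10% FBS exposed 24 h to 10-point compound dilutions starting at 100 or 10 μM, 0.1% DMSO final. Aβ40 in conditioned medium measured by sandwich ELISA (pAb40 capture, biotinylated 6E10 detection, Eu time-resolved fluorescence); IC50 from percent inhibition versus concentration.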
For orientation: In an ELISA, binding on a coated surface is turned into a signal by an enzyme label.
The term IC50 denotes the concentration that inhibits the measured activity by half. With `Cc1cccc(C(=O)N2CCO[C@H](C(=O)N[C@@H](Cc3ccccc3)[C@H](O)CN[C@H]3CC(C)(C)Cc4ncc(C)cc43)C2)c1` [Example 498, (2S)-N-((1S,2R)-2-hydroxy-1-(phenylmethyl)-3-(((5S)-3,7,7-trimethyl-5,6,7,8-tetrahydro-5-quino-linyl)amino)propyl)-4-((3-methylphenyl)carbonyl)-2-morpholinecarboxamide], the IC50 is no more than 5 µM. Regarding `Cc1cccc(C(=O)N2CCO[C@@H](C(=O)N[C@@H](Cc3ccccc3)[C@H](O)CN[C@H]3CC(C)(C)Cc4ncc(C)cc43)C2)c1` [Example 499, (2R)-N-((1S,2R)-2-hydroxy-1-(phenylmethyl)-3-(((5S)-3,7,7-trimethyl-5,6,7,8-tetrahydro-5-quinolinyl)amino)propyl)-4-((3-methylphenyl)carbonyl)-2-morpholinecarboxamide], the IC50 is no more than 5 µM.

As to `CCc1ccc2c(c1)[C@@H](NC[C@@H](O)[C@H](Cc1csc(C)n1)NC(=O)c1cc(-c3ccccn3)c(=O)n(C3CCCC3)c1)CC1(CCC1)O2` [Example 500, 1′-cyclopentyl-N-((1S,2R)-3-(((4S)-6-ethyl-3,4-dihydrospiro[chromene-2,1′-cyclobutan]-4-yl)amino)-2-hydroxy-1-((2-methyl-1,3-thiazol-4-yl)methyl)propyl)-2′-oxo-1′,2′-dihydro-2,3′-bipyridine-5′-carboxamide], the IC50 was no more than 5 µM. Consider `CC(C)n1cc(C(=O)N[C@@H](Cc2ccccc2)[C@H](O)CN[C@H]2CC(C)(C)Cc3sc(CC(C)(C)C)cc32)cc(-c2ccccn2)c1=O` [Example 501, N-((1S,2R)-3-(((4S)-2-(2,2-dimethylpropyl)-6,6-dimethyl-4,5,6,7-tetrahydro-1-benzothien-4-yl)amino)-2-hydroxy-1-(phenylmethyl)propyl)-1′-(1-methylethyl)-2′-oxo-1′,2′-dihydro-2,3′-bipyridine-5′-carboxamide], for which the IC50 was no more than 5 µM. As for `Cc1cnc2c(c1)[C@@H](NC[C@@H](O)[C@H](Cc1ccccc1)NC(=O)C1CCOCC1)CC1(CCC1)C2` [Example 502, N-((1S,2R)-2-hydroxy-3-(((5′S)-3′-methyl-5′,8′-dihydro-6′H-spiro[cyclobutane-1,7′-quinolin]-5′-yl)amino)-1-(phenylmethyl)propyl)tetrahydro-2H-pyran-4-carboxamide], the figure is no more than 5 µM; as for `Cc1cnc2c(c1)[C@@H](NC[C@@H](O)[C@H](Cc1cc(F)cc(F)c1)NC(=O)C1CCOCC1)CC(C)(C)C2` [Example 503, N-((1S,2R)-1-((3,5-difluorophenyl)methyl)-2-hydroxy-3-(((5S)-3,7,7-trimethyl-5,6,7,8-tetrahydro-5-quinolinyl)amino)propyl)tetrahydro-2H-pyran-4-carboxamide], no more than 5 µM; as for `Cc1cnc2c(c1)[C@@H](NC[C@@H](O)[C@H](Cc1ccccc1)NC(=O)C1CCOCC1)CC(C)(C)C2` [Example 504, N-((1S,2R)-2-hydroxy-1-(phenylmethyl)-3-(((5S)-3,7,7-trimethyl-5,6,7,8-tetrahydro-5-quinolinyl)amino)propyl)tetrahydro-2H-pyran-4-carboxamide], no more than 5 µM. Turning to `COCCNc1ccc2c(c1)[C@@H](NC[C@@H](O)[C@H](Cc1ccccc1)NC(=O)c1cc(-c3ccccn3)c(=O)n(C3CCCC3)c1)CC(C)(C)C2=O` [Example 505, 1′-cyclopentyl-N-((1S,2R)-3-(((1S)-3,3-dimethyl-7-((2-(methyloxy)ethyl)amino)-4-oxo-1,2,3,4-tetrahydro-1-naphthalenyl)amino)-2-hydroxy-1-(phenylmethyl)propyl)-2′-oxo-1′,2′-dihydro-2,3′-bipyridine-5′-carboxamide], the IC50 was no more than 5 µM. As for `COCCNc1ccc2c(c1)[C@@H](NC[C@@H](O)[C@@H](Cc1ccccc1)NC(=O)c1cc(-c3ccccn3)c(=O)n(C3CCCC3)c1)CC(C)(C)C2=O` [Example 507, 1′-cyclopentyl-N-((1R,2R)-3-(((1S)-3,3-dimethyl-7-((2-(methyloxy)ethyl)amino)-4-oxo-1,2,3,4-tetrahydro-1-naphthalenyl)amino)-2-hydroxy-1-(phenylmethyl)propyl)-2′-oxo-1′,2′-dihydro-2,3′-bipyridine-5′-carboxamide], the figure is no more than 5 µM; as for `CCc1cc2c(s1)CC1(CCC1)C[C@@H]2NC[C@@H](O)[C@H](Cc1ccccc1)NC(=O)c1cc(-c2ccccn2)c(=O)n(C(C)C)c1` [Example 508, N-((1S,2R)-3-(((4S)-2-ethyl-4,7-dihydro-5H-spiro[1-benzothiophene-6,1′-cyclobutan]-4-yl)amino)-2-hydroxy-1-(phenylmethyl)propyl)-1′-(1-methylethyl)-2′-oxo-1′,2′-dihydro-2,3′-bipyridine-5′-carboxamide], no more than 5 µM. In the case of `Cc1cnc2c(c1)[C@@H](NC[C@@H](O)[C@H](Cc1cc(F)cc(F)c1)NC(=O)[C@@H]1CCOC1)CC1(CCC1)C2` [Example 509, (3R)-N-((1S,2R)-1-((3,5-difluorophenyl)methyl)-2-hydroxy-3-(((5′S)-3′-methyl-5′,8′-dihydro-6′H-spiro[cyclobutane-1,7′-quinolin]-5′-yl)amino)propyl)tetrahydro-3-furancarboxamide], the IC50 is no more than 5 µM. Consider `Cc1cnc2c(c1)[C@@H](NC[C@@H](O)[C@H](Cc1cc(F)cc(F)c1)NC(=O)C1CCOCC1)CC1(CCC1)C2` [Example 510, N-((1S,2R)-1-((3,5-difluorophenyl)methyl)-2-hydroxy-3-(((5′S)-3′-methyl-5′,8′-dihydro-6′H-spiro[cyclobutane-1,7′-quinolin]-5′-yl)amino)propyl)tetrahydro-2H-pyran-4-carboxamide], for which the IC50 is no more than 5 µM. Turning to `CCc1ccc2c(c1)[C@@H](NC[C@@H](O)[C@H](Cc1ccccc1)NC(=O)[C@H]1CN(C(=O)c3cccc(C)c3)CCO1)CC1(CCC1)O2` [Example 511, (2R)-N-((1S,2R)-3-(((4S)-6-ethyl-3,4-dihydrospiro[chromene-2,1′-cyclobutan]-4-yl)amino)-2-hydroxy-1-(phenylmethyl)propyl)-4-((3-methylphenyl)carbonyl)-2-morpholinecarboxamide], the half-inhibitory concentration (IC50) was no more than 5 µM.

On to `CC1(C)Oc2ncccc2[C@H]1NC[C@@H](O)[C@H](Cc1ccccc1)NC(=O)c1cc(-c2ccccn2)c(=O)n(C2CCCC2)c1` [Example 512, 1′-cyclopentyl-N-((1S,2R)-3-(((3R)-2,2-dimethyl-2,3-dihydrofuro[2,3-b]pyridin-3-yl)amino)-2-hydroxy-1-(phenylmethyl)propyl)-2′-oxo-1′,2′-dihydro-2,3′-bipyridine-5′-carboxamide], for which the IC50 was no more than 5 µM. As for `CC1(C)Oc2ncccc2[C@@H]1NC[C@@H](O)[C@H](Cc1ccccc1)NC(=O)c1cc(C2=CC=CCN2)c(=O)n(C2CCCC2)c1` [Example 513, 1′-cyclopentyl-N-((1S,2R)-3-(((3S)-2,2-dimethyl-2,3-dihydrofuro[2,3-b]pyridin-3-yl)amino)-2-hydroxy-1-(phenylmethyl)propyl)-2′-oxo-1,2′-dihydro-2,3′-bipyridine-5′-carboxamide], the IC50 was no more than 5 µM.

In the case of `CCc1cc2c(s1)CC(C)(C)C[C@@H]2NC[C@@H](O)[C@H](Cc1ccccc1)NC(=O)[C@@H]1CN(C(=O)c2cccc(C)c2)CCO1` [Example 514, (2S)-N-((1S,2R)-3-(((4S)-2-ethyl-6,6-dimethyl-4,5,6,7-tetrahydro-1-benzothien-4-yl)amino)-2-hydroxy-1-(phenylmethyl)propyl)-4-((3-methylphenyl)carbonyl)-2-morpholinecarboxamide], the IC50 was no more than 5 µM. For `CCc1cc2c(s1)CC(C)(C)C[C@@H]2NC[C@@H](O)[C@H](Cc1ccccc1)NC(=O)[C@H]1CN(C(=O)c2cccc(C)c2)CCO1` [Example 515, (2R)-N-((1S,2R)-3-(((4S)-2-ethyl-6,6-dimethyl-4,5,6,7-tetrahydro-1-benzothien-4-yl)amino)-2-hydroxy-1-(phenylmethyl)propyl)-4-((3-methylphenyl)carbonyl)-2-morpholinecarboxamide], the concentration for half-maximal inhibition (IC50) is no more than 5 µM. Consider `CC1(C)Cc2ccc(O[C@H]3CCOC3)cc2[C@@H](NC[C@@H](O)[C@H](Cc2ccccc2)NC(=O)[C@H]2CCC(=O)O2)C1` [Example 516, (2R)-N-((1S,2R)-3-(((1S)-3,3-dimethyl-7-((3S)-tetrahydro-3-furanyloxy)-1,2,3,4-tetrahydro-1-naphthalenyl)amino)-2-hydroxy-1-(phenyl-methyl)propyl)-5-oxotetrahydro-2-furancarboxamide], for which the half-inhibitory concentration (IC50) was no more than 5 µM. With `CC1(C)Cc2ccc(O[C@H]3CCOC3)cc2[C@@H](NC[C@@H](O)[C@H](Cc2ccccc2)NC(=O)[C@@H]2CCC(=O)O2)C1` [Example 517, (2S)-N-((1S,2R)-3-(((1S)-3,3-dimethyl-7-((3S)-tetrahydro-3-furanyloxy)-1,2,3,4-tetrahydro-1-naphthalenyl)amino)-2-hydroxy-1-(phenyl-methyl)propyl)-5-oxotetrahydro-2-furancarboxamide] the figure was no more than 5 µM. With `CC1(C)Cc2ccc(O[C@H]3CCOC3)cc2[C@@H](NC[C@@H](O)[C@H](Cc2ccccc2)NC(=O)c2ccc(=O)n(C3CCCC3)c2)C1` [Example 518, 1-cyclopentyl-N-((1S,2R)-3-(((1S)-3,3-dimethyl-7-((3S)-tetrahydro-3-furanyloxy)-1,2,3,4-tetrahydro-1-naphthalenyl)amino)-2-hydroxy-1-(phenylmethyl)propyl)-6-oxo-1,6-dihydro-3-pyridinecarboxamide] the figure was no more than 5 µM; with `CC1(C)Cc2ccc(O[C@H]3CCOC3)cc2[C@@H](NC[C@@H](O)[C@H](Cc2ccccc2)NC(=O)c2cc(-c3ccccn3)c(=O)n(C3CCCC3)c2)C1` [Example 519, 1′-cyclopentyl-N-((1S,2R)-3-(((1S)-3,3-dimethyl-7-((3S)-tetrahydro-3-furanyloxy)-1,2,3,4-tetrahydro-1-naphthalenyl)amino)-2-hydroxy-1-(phenylmethyl)propyl)-2′-oxo-1′,2′-dihydro-2,3′-bipyridine-5′-carboxamide], no more than 5 µM.
